Measured values taken from patent US20130096159A1, “INHIBITORS OF HUMAN 12-LIPOXYGENASE” (The United States of America, as represented the Secretary …, priority 2010, published 2013).

Key:
human platelets = assay: dense granule secretion (ATP release) in washed platelets; format: cell-based; conditions: induced by thrombin, PAR1-AP, PAR4-AP, ADP, arachidonic acid, collagen; FIG. 3
Protocol: Human platelets were obtained from healthy volunteers from within the Thomas Jefferson University community and the Philadelphia area. These studies were approved by the Thomas Jefferson University Institutional Review Board. Informed consent was obtained from all donors before blood draw. Blood was centrifuged at 200 g for 15 min at room temperature. Platelet-rich plasma was transferred into a conical tube containing a 10% acid citrate dextrose solution (39 mM citric acid, 75 mM sodium citrate, and 135 mM glucose, pH 7.4) and centrifuged at 2000 g for 15 min at room temperature. Platelets were resuspended in Tyrode's buffer (12 mM NaHCO3, 127 mM NaCl, 5 mM KCl, 0.5 mM NaH2PO4, 1 mM MgCl2, 5 mM glucose, and 10 mM HEPES), and the final platelet concentration was adjusted as indicated after counting using a Coulter counter (Beckman Coulter, Fullerton, Calif.). Reported results are the data obtained using platelets from at least three different subjects.
Washed platelets were obtained as described in Example 10. […] After addition of 5 μl of Chrono-lume reagent (Chrono-log Corp., Havertown, Pa.), ATP release was measured in response to stimulation by the agonists thrombin, PAR1-AP, PAR4-AP, ADP, arachidonic acid, and collagen using a Lumi-aggregometer Model 700D (Chrono-log Corp., Havertown, Pa.) at 37° C. with stirring at 1100 rpm. […]

recombinant human cPLA2 = target: T1, recombinant human cPLA2 (Homo sapiens, UniProt P47712); assay: cPLA2 enzymatic activity assay; format: biochemical; conditions: 50 μM, 5 min of incubation; FIG. 8
T1 sequence (P47712 1-749): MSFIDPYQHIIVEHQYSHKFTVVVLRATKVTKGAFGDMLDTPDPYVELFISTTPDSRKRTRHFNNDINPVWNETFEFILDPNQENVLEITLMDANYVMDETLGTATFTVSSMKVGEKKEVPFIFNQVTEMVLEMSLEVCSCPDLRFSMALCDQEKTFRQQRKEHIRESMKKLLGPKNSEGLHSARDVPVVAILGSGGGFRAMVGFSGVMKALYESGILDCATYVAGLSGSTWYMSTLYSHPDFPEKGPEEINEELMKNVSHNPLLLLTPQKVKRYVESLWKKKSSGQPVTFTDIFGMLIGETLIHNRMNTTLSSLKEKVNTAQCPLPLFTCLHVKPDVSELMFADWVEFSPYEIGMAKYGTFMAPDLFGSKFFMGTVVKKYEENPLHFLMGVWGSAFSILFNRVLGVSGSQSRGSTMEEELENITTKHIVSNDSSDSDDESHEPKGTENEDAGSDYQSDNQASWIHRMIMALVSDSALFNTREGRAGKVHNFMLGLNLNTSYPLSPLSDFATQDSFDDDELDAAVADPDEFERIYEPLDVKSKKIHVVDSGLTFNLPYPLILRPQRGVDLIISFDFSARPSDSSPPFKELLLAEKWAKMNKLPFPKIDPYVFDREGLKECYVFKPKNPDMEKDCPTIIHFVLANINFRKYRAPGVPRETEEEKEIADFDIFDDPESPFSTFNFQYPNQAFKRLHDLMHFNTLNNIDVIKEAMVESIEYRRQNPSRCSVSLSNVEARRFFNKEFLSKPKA
Protocol: A., et al., Biochemistry, 2011, 50: 1731-1738 with the following differences. The inhibitors in solution in DMSO were added at a final concentration of 50 μM right before the recombinant enzyme was added to initiate the reaction. After 5 min of incubation, the products of reaction were analyzed, and the results depicted in FIG. 8.

Compound: CCC(=O)NC(c1cccs1)c1cc([N+](=O)[O-])c2cccnc2c1O (centres unmarked) [Compound 1, N-((8-hydroxy-5-nitroquinolin-7-yl)(thiophen-2-yl)methyl)propionamide]
- ATP secretion (dense granule secretion) (human platelets): substantially complete blockage of ATP secretion
- inhibition of cPLA2 (recombinant human cPLA2): did not inhibit cPLA2
